Test results published in PubChem BioAssay AID248 (DTP/NCI, 2004).
“And” between values parts separate entries of the source, which are not always exact repeats. Equal entries are not always repeated. Inconclusive results and toxic doses are left out. Rule as the data show it: active = T/C of 150% or more; inactive = T/C below 125%.

System: L1210 leukemia ip in BDF1 mice, survival T/C
Assay: NCI In Vivo Anticancer Drug Screen. Data for tumor model L1210 Leukemia (intraperitoneal) in B6D2F1 (BDF1) mice
Conditions: endpoint: mean survival time, higher = longer survival
Procedure, shortened: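 Mice bearing the transplanted tumor received compound or vehicle. Survival of the treated group was divided by that of the vehicle-treated control group to give the ratio.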

[1] = dose: 100.0 mg/kg/injection, schedule: Q04DX003 (ip), vehicle: saline with Tween-80
[2] = dose: 200.0 mg/kg/injection, schedule: Q04DX003 (ip), vehicle: saline with Tween-80
[3] = dose: 400.0 mg/kg/injection, schedule: Q04DX003 (ip), vehicle: saline with Tween-80

Measured: T/C

O=C(NC(=S)Nc1cccc(O)c1)c1cccc([N+](=O)[O-])c1
inactive: dose: 100.0 mg/kg/injection, schedule: Q01DX001 (ip), vehicle: saline with Tween-80 93 % of control | dose: 100.0 mg/kg/injection, schedule: Q01DX009 (ip), vehicle: saline with Tween-80 94 % of control and 87 % of control | dose: 100.0 mg/kg/injection, schedule: Q04DX002 (ip), vehicle: saline with Tween-80 98 % of control and 101 % of control | [1] 89 % of control | dose: 200.0 mg/kg/injection, schedule: Q01DX001 (ip), vehicle: saline with Tween-80 97 % of control | dose: 200.0 mg/kg/injection, schedule: Q01DX009 (ip), vehicle: saline with Tween-80 93 % of control and 105 % of control | dose: 200.0 mg/kg/injection, schedule: Q04DX002 (ip), vehicle: saline with Tween-80 96 % of control and 109 % of control | [2] 109 % of control | dose: 400.0 mg/kg/injection, schedule: Q01DX001 (ip), vehicle: saline with Tween-80 103 % of control | dose: 400.0 mg/kg/injection, schedule: Q01DX009 (ip), vehicle: saline with Tween-80 94 % of control | dose: 400.0 mg/kg/injection, schedule: Q04DX002 (ip), vehicle: saline with Tween-80 101 % of control | [3] 94 % of control

CC(C)CCC[C@@H](C)[C@H]1CC[C@H]2[C@@H]3CC=C4C[C@@H](OC(=O)Cc5ccc(N(CCCl)CCCl)cc5)CC[C@]4(C)[C@H]3CC[C@]12C
inactive: dose: 50.0 mg/kg/injection, schedule: Q01DX001 (sc), vehicle: steriod suspending solution 110 % of control | dose: 50.0 mg/kg/injection, schedule: Q01DX009 (oral), vehicle: saline 98 % of control | dose: 100.0 mg/kg/injection, schedule: Q01DX001 (sc), vehicle: steriod suspending solution 96 % of control | dose: 100.0 mg/kg/injection, schedule: Q01DX009 (oral), vehicle: other 121 % of control | dose: 100.0 mg/kg/injection, schedule: Q01DX009 (oral), vehicle: saline 98 % of control | dose: 100.0 mg/kg/injection, schedule: Q01DX009 (sc), vehicle: other 109 % of control | dose: 200.0 mg/kg/injection, schedule: Q01DX001 (sc), vehicle: steriod suspending solution 100 % of control | dose: 200.0 mg/kg/injection, schedule: Q01DX009 (oral), vehicle: saline 102 % of control | dose: 200.0 mg/kg/injection, schedule: Q01DX009 (sc), vehicle: other 111 % of control | dose: 250.0 mg/kg/injection, schedule: Q01DX015 (ip), vehicle: steriod suspending solution 95 % of control | dose: 400.0 mg/kg/injection, schedule: Q01DX001 (sc), vehicle: steriod suspending solution 115 % of control | dose: 400.0 mg/kg/injection, schedule: Q01DX009 (oral), vehicle: other 116 % of control | dose: 400.0 mg/kg/injection, schedule: Q01DX009 (oral), vehicle: saline 91 % of control | dose: 400.0 mg/kg/injection, schedule: Q01DX009 (sc), vehicle: other 106 % of control | dose: 400.0 mg/kg/injection, schedule: Q01DX015 (ip), vehicle: steriod suspending solution 111 % of control | dose: 800.0 mg/kg/injection, schedule: Q01DX009 (oral), vehicle: other 98 % of control | dose: 800.0 mg/kg/injection, schedule: Q01DX009 (oral), vehicle: saline 96 % of control

CN(C)CCCN=Cc1cc([N+](=O)[O-])ccc1O.CN(C)CCCN=Cc1cc([N+](=O)[O-])ccc1O.[Ni+2]
inactive: [1] 91 % of control

CN(C)c1ncnc2nsnc12
inactive: [1] 100 % of control

O=C(CNC(=O)OCc1ccccc1)NCC(=O)NC(Cc1c[nH]c2ccccc12)C(=O)OCc1ccccc1 (centres undefined)
inactive: dose: 100.0 mg/kg/injection, schedule: Q04DX003 (ip), vehicle: Klucel (hydroxypropylcellulose) (HPC) 100 % of control | dose: 200.0 mg/kg/injection, schedule: Q04DX003 (ip), vehicle: Klucel (hydroxypropylcellulose) (HPC) 101 % of control | dose: 400.0 mg/kg/injection, schedule: Q04DX003 (ip), vehicle: Klucel (hydroxypropylcellulose) (HPC) 94 % of control

CC12CCC3c4ccc(Cc5ccc([N+](=O)[O-])cc5)cc4CCC3C1CCC2=O (centres undefined)
inactive: dose: 50.0 mg/kg/injection, schedule: Q01DX001 (ip), vehicle: saline 105 % of control | dose: 100.0 mg/kg/injection, schedule: Q01DX001 (ip), vehicle: saline 100 % of control | dose: 200.0 mg/kg/injection, schedule: Q01DX001 (ip), vehicle: saline 100 % of control | dose: 400.0 mg/kg/injection, schedule: Q01DX001 (ip), vehicle: saline 105 % of control

O=C(O)c1cccc2cccc(C3SCCS3)c12
inactive: [1] 101 % of control | [2] 104 % of control | [3] 90 % of control

Cc1ccc([N+](=O)[O-])cc1NC(=O)Nc1ccccc1C(F)(F)F
inactive: dose: 100.0 mg/kg/injection, schedule: Q01DX009 (ip), vehicle: Klucel (hydroxypropylcellulose) (HPC) 93 % of control | dose: 200.0 mg/kg/injection, schedule: Q01DX009 (ip), vehicle: Klucel (hydroxypropylcellulose) (HPC) 96 % of control | dose: 400.0 mg/kg/injection, schedule: Q01DX009 (ip), vehicle: Klucel (hydroxypropylcellulose) (HPC) 95 % of control
